Reference: ChEMBL document CHEMBL1150165, “Antineoplastic agents. 489. Isolation and structures of meliastatins 1-5 and related euphane triterpenes from the tree Melia dubia” (2002)
≈ marks a conversion by molar mass, not a printed value.

Columns and labels:
Format in all cases: functional
P388 = assay: Growth inhibition of mouse P388 cells; settings: read-out: ED50 (the source's name)
MCF7 = assay: Growth inhibition of human MCF7 cells
SF-268 = assay: Growth inhibition of human SF268 cells
KM-20L2 = assay: Growth inhibition of human KM20L2 cells
NCI-H460 = assay: Growth inhibition of human NCI-H460 cells
BXPC-3 = assay: Growth inhibition of human BxPC3 cells
DU-145 = assay: Growth inhibition of human DU145 cells

Structure (SMILES) | EC50 (P388) | GI50 (MCF7) | GI50 (SF-268) | GI50 (KM-20L2) | GI50 (NCI-H460) | GI50 (BXPC-3) | GI50 (DU-145)
CC(C)=CCC[C@@H](C)[C@@H]1[C@@H](O)C[C@]2(C)C3=CC[C@H]4C(C)(C)[C@@H](O)CC[C@]4(C)[C@H]3CC[C@@]12C | 2.5 µg/mL (≈ 5.65 µM) |  |  |  |  |  | 
C=C(C)[C@@H]1CCC([C@@H]2[C@@H](O)C[C@]3(C)C4=CC[C@H]5C(C)(C)C(=O)CC[C@]5(C)[C@H]4CC[C@@]23C)C(=O)O1 (stereo not given in full) [DUBIONE B] | 20.5 µg/mL (≈ 43.7 µM) |  |  |  |  |  | 
O=c1[nH]cc(F)c(=O)[nH]1 [FLUOROURACIL] | 0.075 µg/mL (≈ 0.577 µM) |  |  |  |  |  | 
CC(C)=CCC[C@H]1C(=O)O[C@H]2C[C@]3(C)C4=CC[C@H]5C(C)(C)C(=O)CC[C@]5(C)[C@H]4CC[C@@]3(C)[C@@H]21 [KULACTONE] | 6.2 µg/mL (≈ 13.7 µM) |  |  |  |  |  | 
CC(C)=CCC[C@@H](C)[C@@H]1[C@@H](O)C[C@]2(C)C3=CC[C@H]4C(C)(C)C(=O)CC[C@]4(C)[C@H]3CC[C@@]12C [KULINONE] | 4.6 µg/mL (≈ 10.4 µM) | 3.6 µg/mL (≈ 8.17 µM) | 3.6 µg/mL (≈ 8.17 µM) | 3.6 µg/mL (≈ 8.17 µM) | 3.6 µg/mL (≈ 8.17 µM) | 3.61 µg/mL (≈ 8.19 µM) | 3.6 µg/mL (≈ 8.17 µM)
C[C@H](C/C=C/C(C)(C)O)[C@@H]1[C@@H](O)C[C@]2(C)C3=CC[C@H]4C(C)(C)C(=O)CC[C@]4(C)[C@H]3CC[C@@]12C [MELIASTATIN 1] | 2.5 µg/mL (≈ 5.47 µM) | 1.9 µg/mL (≈ 4.16 µM) | 1.9 µg/mL (≈ 4.16 µM) | 1.9 µg/mL (≈ 4.16 µM) | 1.9 µg/mL (≈ 4.16 µM) | 1.9 µg/mL (≈ 4.16 µM) | 1.9 µg/mL (≈ 4.16 µM)
COC(=O)[C@H](C/C=C/C(C)(C)O)[C@@H]1[C@@H](O)C[C@]2(C)C3=CC[C@H]4C(C)(C)C(=O)CC[C@]4(C)[C@H]3CC[C@@]12C [MELIASTATIN 2] | 5.6 µg/mL (≈ 11.2 µM) | 6.3 µg/mL (≈ 12.6 µM) | 6.3 µg/mL (≈ 12.6 µM) | 6.3 µg/mL (≈ 12.6 µM) | 6.3 µg/mL (≈ 12.6 µM) | 6.3 µg/mL (≈ 12.6 µM) | 6.3 µg/mL (≈ 12.6 µM)
COC(=O)[C@H](C/C=C/C(C)(C)OO)[C@@H]1[C@@H](O)C[C@]2(C)C3=CC[C@H]4C(C)(C)C(=O)CC[C@]4(C)[C@H]3CC[C@@]12C [MELIASTATIN 3] | 3.1 µg/mL (≈ 6 µM) |  |  |  |  |  | 
C=C(C)[C@@H](O)CC[C@@H](C(=O)OC)[C@@H]1[C@@H](O)C[C@]2(C)C3=CC[C@H]4C(C)(C)C(=O)CC[C@]4(C)[C@H]3CC[C@@]12C [MELIASTATIN 4] | 2 µg/mL (≈ 3.99 µM) |  |  |  |  |  | 
C=C(C)C(O)CC[C@@H](C)[C@@H]1[C@@H](O)C[C@]2(C)C3=CC[C@H]4C(C)(C)C(=O)CC[C@]4(C)[C@H]3CC[C@@]12C (stereo not given in full) [MELIASTATIN 5] | 1.7 µg/mL (≈ 3.72 µM) |  |  |  |  |  | 
COC(=O)[C@H](CCC=C(C)C)[C@@H]1[C@@H](O)C[C@]2(C)C3=CC[C@H]4C(C)(C)C(=O)CC[C@]4(C)[C@H]3CC[C@@]12C [METHYL KULONATE] | 5.1 µg/mL (≈ 10.5 µM) | 3.7 µg/mL (≈ 7.63 µM) | 3.7 µg/mL (≈ 7.63 µM) | 3.7 µg/mL (≈ 7.63 µM) | 3.7 µg/mL (≈ 7.63 µM) | 3.7 µg/mL (≈ 7.63 µM) | 3.7 µg/mL (≈ 7.63 µM)
